Measurements: patent US11446388B2, “Amanitin antibody conjugates” ([…] Research GmbH, priority 2016, dated 2022)
*1 amine or outer side, *2 acyl side, *3 side chain or, on linkers, in order; H or OH if unused. Where a SMILES comes first, the peptide text is derived from it. Bridges are numbered along the chain shown (N, C = ends). [ ]: non-standard residue; d: D form. The star is where a group is joined. ξ: configuration not given here. X2 = CC(C)C(NC(=O)CCN1C(=O)C=CC1=O)C(=O)N[C@@H](C)C(=O)Nc1ccc(CN*)cc1; Trp(2-yl) = O=C([C@H](Cc1c([*:3])[nH]c2ccccc12)N[*:1])[*:2]; Ile(4R-OH,5-OH) = C[C@H]([C@H](N)C(=O)O)[C@@H](O)CO; X3 = CC([C@H](N[*:1])C(=O)[*:2])[C@@H](O)CO; X1 = O=C([C@@H]1CC(O)CN1[*:1])[*:2]; ξD = NC(CC(=O)O)C(=O)O; ξC = NC(CS)C(=O)O

Columns and labels:
[1] = Reactivity with cysteine in PBS buffer (RP-HPLC C18); assay type: physicochemical; settings: 1 mg/mL, 10 mg/mL cysteine in PBS, pH 7.4 at 37° C., 24 h, 48 h and 6 d
Method: 1 mg/mL α-amanitin 10 mg/mL cysteine in PBS, pH 7.4 at 37° C. after 24 h, 48 h and 6 d RP-HPLC C18.
1 mg/mL β-amanitin 10 mg/mL cysteine in PBS, pH 7.4 at 37° C. after 24 h, 48 h and 6 d RP-HPLC C18.
1 mg/mL amanin 10 mg/mL cysteine in PBS, pH 7.4 at 37° C. after 24 h, 48 h and 6 d RP-HPLC C18.
1 mg/mL HDP 30.2105, 10 mg/mL cysteine in PBS, pH 7.4 at 37° C. after 24 h, 48 h and 6 d RP-HPLC C18; *impurity.
FIG. 7 summarizes the results from FIGS. 3 to 6; x axis: reaction time in hours; y axis: amount of remaining amatoxin variant in %.

SKBR-3 cells = assay: Cytotoxicity on SKBR-3 after plasma or PBS stressing of reference Thiomab conjugates; assay type: cell-based; settings: 4 days, SKBR-3 cells 96 h
Method: Test items were incubated in human plasma at 37° C. for 0 an 4 days. Cytotoxicity assay were performed on SKBR-3 cells for 96 h.
Test items were incubated in mouse plasma at 37° C. for 0 an 4 days. Cytotoxicity assay were performed on SKBR-3 cells for 96 h.
Test items were incubated in PBS at 37° C. for 0 an 4 days. Cytotoxicity assay were performed on SKBR-3 cells for 96 h. All ADCs show adequate stability to non-enzymatic environment.

[2] = Western-Blot stability of reference Thiomab D265C conjugates in plasma and PBS; assay type: in vitro ADME; settings: conjugated to reference Thiomab D265C; 37° C. in human plasma, mouse plasma and PBS for 0, 4 and 10 days
Excerpt: Detection was done with a polyclonal anti-amanitin antibody from rabbit and an anti-rabbit antibody conjugated to horseradish peroxidase.

RNA-polymerase II = RNA-polymerase II (Homo sapiens, UniProt P24928); settings: read-out: KD of complex with RNA-polymerase II; cited from earlier work
[3] = system: BCMA-positive NCI-H929 cells; assay: Plasma stability: cell-based cytotoxicity assay after incubation in plasma or PBS; design: species or system human
Method: J22.9-ISY-D265C-30.2115 (A) and J22.9-ISY-D265C-30.1699 (B) were incubated in PBS for control, or human, cynomolgus or mouse plasma for 0, 4, and 10 days at 37° C. and analysed for remaining cellular toxicity potential using BCMA-positive NCI-H929 cells.
Plasma stability of both ADC variants was confirmed in a cell-based cytotoxicity assay on BCMA-positive NCI-H929 cells (see Table 2) after incubation for 0, 4 and 10 days in PBS, human, cynomolgus or mouse plasma.

[4] = Dose-escalating tolerability study in non-human primates; assay type: in vivo, cynomolgus monkeys; settings: repeated dosing of 3 mg/kg
Method: ALT: alanine transaminase; AST: aspartate transaminase; LDH: lactate dehydrogenase.
J22.9-ISY-D265C-30.2115 and J22.9-ISY-D265C-30.1699 were assessed for a dose-escalating tolerability study in cynomolgus monkeys. Groups of 3 animals were injected with J22.9-ISY-D265C-30.1699 at days 1 (0.3 mg/kg), 22 (1 mg/kg), and 44 (3 mg/kg), or with J22.9-ISY-D265C-30.2115 at days 1 (0.3 mg/kg), 21 (1 mg/kg), and 42, 64, 84, 106 (3 mg/kg each time point). Animals were monitored over time for biochemical and haematological blood parameters (see FIG. 25), urinalysis, body weight, food consumption, clinical signs and mortality. In addition, blood samples were collected for pharmacokinetic studies. At the end of the experiments tissue samples are used for histopathological examinations.

[5] = assay type: in vitro ADME; settings: 37° C. for 0, 4, and 10 days in PBS, human, cynomolgus or mouse plasma
Method: Stability of J22.9-ISY-D265C-30.2115 and J22.9-ISY-D265C-30.1699 was tested following incubation at 37° C. for 0, 4, and 10 days in PBS, human, cynomolgus or mouse plasma.

[6] = system: NCI-H929 subcutaneous xenograft; assay: NCI-H929 subcutaneous xenograft, repeated dose; assay type: in vivo, mouse
Method: Once tumor volume reached 80 mm^3, mice (9 animals per group) were treated intravenously either once per week (1×/week), every two weeks (1×/2 weeks) or every 3 weeks (1×/3 weeks) with J22.9-ISY-D265C-30.2115 (doses 0.25 mg/kg, 0.5 mg/kg or 1 mg/kg) or were treated with PBS as control. In addition, 2 mg/kg doses were applied twice per week (2×/week). Tumor volumes were monitored twice per week.
The efficacy of drug substance J22.9-ISY-D265C-30.2115 was further evaluated in a repeated dose setting in the subcutaneous NCI-H929 xenograft model. Compared to the single dose application described above, doses were reduced to 1, 0.5 and 0.25 mg/kg and applied either once per week (1×/week), every two weeks (1×/2 weeks) or every three weeks (1×/3 weeks).

MM.1S Luc xenograft [7] = assay: Disseminating MM.1S Luc xenograft model, comparison with J22.9-ISY-MMAF; assay type: in vivo
Method: The antitumor activity of J22.9-ISY-D265C-30.2115 was compared to the interchain conjugate J22.9-ISY-MMAF in a disseminating intravenous MM.1S Luc xenograft model at doses of 1 and 4 mg/kg.

[8] = system: NCI-H929 subcutaneous xenograft; assay: NCI-H929 subcutaneous xenograft, single dose; assay type: in vivo, mouse
Method: Once tumor volume reached 80 mm^3, mice (8 animals per group) were treated intravenously with single doses (2 or 4 mg/kg) of J22.9-ISY-D265C-30.2115 or J22.9-ISY-D265C-30.1699, or were treated with PBS as control.. Tumor volumes were monitored twice per week.
Antitumor activity of J22.9-ISY-D265C-30.2115 and J22.9-ISY-D265C-30.1699 was tested in a subcutaneous NCI-H929 (see Table 3 for details of cell line) mouse xenograft model.

MM.1S Luc xenograft [9] = assay: Disseminating intravenous MM.1S Luc xenograft model, single dose; assay type: in vivo, mouse
Method: When reaching a mean flux of 1.5×10^6-1×10^7 (10-14 days after implantation) 8-10 mice per group were treated with single doses (2 and 4 mg/kg) of J22.9-ISY-D265C-30.1699, J22.9-ISY-D265C-30.2115 or PBS as control. Luciferase activity was monitored by non-invasive bio-imaging twice weekly, 10 minutes after administration of luciferin (10 μl/g body weight). (B) Individual tumor growth curves for each animal are depicted. Individual Growth curves are shown for groups treated with 2 mg/kg (solid line) and 4 mg/kg (dashed line) of J22.9-ISY-D265C-30.2115.
When reaching a mean flux of 1.5×10^6-1×10^7 (10-14 days after implantation) 8-10 mice per group were treated with single doses (0.1, 0.3, 1 and 2 mg/kg) of J22.9-ISY-D265C-30.2115 or PBS as control. Luciferase activity was monitored by non-invasive bio-imaging twice weekly, 10 minutes after administration of luciferin (10 μl/g body weight). (B) Individual tumor growth curves for each animal are depicted. Growth curves are shown for groups treated with 1 mg/kg (solid line) and 2 mg/kg (dashed line) of J22.9-ISY-D265C-30.2115.
The antitumor activity of J22.9-ISY-D265C-30.1699 and J22.9-ISY-D265C-30.2115 was further tested in a disseminating intravenous MM.1S Luc xenograft model at doses of 2 and 4 mg/kg. […]

MM.1S Luc, and KMS-11 = assay: Timeline cytotoxicity experiment 24 to 120 hours on the two cell lines; assay type: cell-based, human; settings: measured after 24, 46, 72, 96, and 120 hours
Method: Cytotoxicity potentials of J22.9-ISY-D265C-30.2115 was compared to the interchain conjugate J22.9-ISY-MMAF on two BCMA-positive MM cell lines (MM.1S Luc, and KMS-11). […] The efficacy of both compounds was compared in a timeline experiment on the two cell lines. Cytotoxicity was measured after 24, 46, 72, 96, and 120 hours (see FIGS. 26B+26C).

Molecule: α-amanitin
- reactivity with cysteine [1]: strong reactivity

Molecule: amanin
- reactivity with cysteine [1]: reduced reactivity

Molecule: CC[C@H](C)[C@@H]1NC(=O)CNC(=O)[C@@H]2Cc3c([nH]c4ccccc34)SCC(NC(=O)CNC1=O)C(=O)N[C@@H](CC(=O)NCc1ccc(NC(=O)[C@H](C)NC(=O)C(NC(=O)CCN3C(=O)C=CC3=O)C(C)C)cc1)C(=O)N1CC(O)C[C@H]1C(=O)N[C@@H]([C@@H](C)[C@@H](O)CO)C(=O)N2 (stereo partly drawn) [HDP 30.2115] (cyclo(D(X2)[X1][Ile(4R-OH,5-OH)][Trp(2-yl)]GIG[ξC]); thioether 4-8)
- cytotoxicity after plasma stressing (SKBR-3 cells; human plasma at 37° C.): still picomolar activity
- cytotoxicity after plasma stressing (SKBR-3 cells; mouse plasma at 37° C.): remains almost unchanged
- stability / cross-links (Western-Blot) [2]: high stability and significantly reduced cross-links

Molecule: amanitin
- Kd (RNA-polymerase II): 3 nM

Molecule: J22.9-ISY-D265C-30.2115: Thiomab antibody J22.9-ISY-D265C conjugated to amatoxin-linker HDP 30.2115 via engineered cysteine 265, cleavable linker
- EC50 ([3]; PBS pH 7.4, day 0, 37° C.): 0.24 nM
- EC50 ([3]; PBS pH 7.4, day 4, 37° C.): 0.24 nM
- EC50 ([3]; PBS pH 7.4, day 10, 37° C.): 0.41 nM
- EC50 ([3]; cynomolgus plasma, day 0, 37° C.): 0.25 nM
- EC50 ([3]; cynomolgus plasma, day 4, 37° C.): 0.25 nM
- EC50 ([3]; human plasma, day 0, 37° C.): 0.28 nM
- EC50 ([3]; human plasma, day 4, 37° C.): 0.27 nM
- EC50 ([3]; human plasma, day 10, 37° C.): 1 nM
- influence of incubation on cytotoxic potential ([3]; incubation in PBS or plasma up to 10 days): almost no influence on the cytotoxic potential
- EC50 ([3]; mouse plasma, day 0, 37° C.): 0.12 nM
- EC50 ([3]; mouse plasma, day 4, 37° C.): 0.18 nM
- EC50 ([3]; mouse plasma, day 10, 37° C.): 0.6 nM
- liver enzymes or LDH on repeated dosing [4]: did not result in further increase
- stability (Western Blot) [5]: particularly high stability
- tumor response ([6]; repeated 2 mg/kg dosing): complete tumor remission
- tumor response ([6]; repeatedly applied doses of 1 mg/kg): tumor regression
- time to regrowth of the tumor (MM.1S Luc xenograft [7]; 1 mg/kg): 50 days
- time to regrowth of the tumor (MM.1S Luc xenograft [7]; 4 mg/kg): 100 days
- time to initial response (MM.1S Luc xenograft [7]; 1 and 4 mg/kg (both doses)): 10 days
- efficacy compared with MMAF conjugate (MM.1S Luc xenograft [7]; in vivo): better efficacy in terms of tumor free survival
- anti-tumor efficacy compared to J22.9-ISY-D265C-30.1699 ([8]; 2 mg/kg): slightly superior anti-tumor efficacy
- statistically significant body weight reduction ([8]; single doses 2 or 4 mg/kg): No statistically significant body weight reduction was observed
- initial response followed by regrowth of tumor ([8]; single treatment 2 mg/kg iv): 6 of 8
- complete tumor remission ([8]; single treatment 4 mg/kg iv): 7 of 8
- tumor response (MM.1S Luc xenograft [9]; single dose application of 0.3 mg/kg): complete tumor eradication
- slight regrowth of tumor after initial response for over 90 days (MM.1S Luc xenograft [9]; single doses of 2 and 4 mg/kg): 1 of 10
- time at which full cytotoxicity is unfolded (MM.1S Luc, and KMS-11): after 96 and 120 hours

Molecule: β-amanitin
- reactivity with cysteine [1]: strong reactivity

Molecule: CC[C@H](C)[C@@H]1NC(=O)CNC(=O)[C@@H]2Cc3c([nH]c4ccccc34)SCC(NC(=O)CNC1=O)C(=O)NC(CC(=O)O)C(=O)N1CC(O)C[C@H]1C(=O)N[C@@H](C(C)[C@@H](O)CO)C(=O)N2 (some centres unmarked) [HDP 30.2105] (cyclo(GIG[ξC][ξD][X1][X3][Trp(2-yl)]); thioether 4-8)
- reactivity with cysteine [1]: complete absence of reactivity

Molecule: CC[C@H](C)[C@@H]1NC(=O)CNC(=O)[C@H]2Cc3c([nH]c4cc(OCc5ccc(NC(=O)[C@H](C)NC(=O)[C@@H](NC(=O)CCN6C(=O)C=CC6=O)C(C)C)cc5)ccc34)[S@+]([O-])CC(NC(=O)CNC1=O)C(=O)N[C@@H](CC(N)=O)C(=O)N1CC(O)C[C@H]1C(=O)N[C@@H]([C@@H](C)[C@@H](O)CO)C(=O)N2 (some centres unmarked) [HDP 30.1699]
- cytotoxicity after plasma stressing (SKBR-3 cells; human plasma at 37° C.): remarkable loss of cytotoxicity
- cytotoxicity after plasma stressing (SKBR-3 cells; mouse plasma at 37° C.): remarkable loss of cytotoxicity
- stability / cross-links (Western-Blot) [2]: considerable cross-links and loss of the amatoxin moiety
